# According to patent US20260055079A1, “PHTHALAZINONE COMPOUNDS AS PARP7 INHIBITORS” (AZKARRA THERAPEUTICS, INC., priority 2022, published 2026):
# Molecular target: His-GST-PARP7 (Homo sapiens (Human), UniProt Q7Z3E1)
# Assay: PARP7 biochemical assay
# Conditions: not given
# Sequence of His-GST-PARP7 (Q7Z3E1 whole entry): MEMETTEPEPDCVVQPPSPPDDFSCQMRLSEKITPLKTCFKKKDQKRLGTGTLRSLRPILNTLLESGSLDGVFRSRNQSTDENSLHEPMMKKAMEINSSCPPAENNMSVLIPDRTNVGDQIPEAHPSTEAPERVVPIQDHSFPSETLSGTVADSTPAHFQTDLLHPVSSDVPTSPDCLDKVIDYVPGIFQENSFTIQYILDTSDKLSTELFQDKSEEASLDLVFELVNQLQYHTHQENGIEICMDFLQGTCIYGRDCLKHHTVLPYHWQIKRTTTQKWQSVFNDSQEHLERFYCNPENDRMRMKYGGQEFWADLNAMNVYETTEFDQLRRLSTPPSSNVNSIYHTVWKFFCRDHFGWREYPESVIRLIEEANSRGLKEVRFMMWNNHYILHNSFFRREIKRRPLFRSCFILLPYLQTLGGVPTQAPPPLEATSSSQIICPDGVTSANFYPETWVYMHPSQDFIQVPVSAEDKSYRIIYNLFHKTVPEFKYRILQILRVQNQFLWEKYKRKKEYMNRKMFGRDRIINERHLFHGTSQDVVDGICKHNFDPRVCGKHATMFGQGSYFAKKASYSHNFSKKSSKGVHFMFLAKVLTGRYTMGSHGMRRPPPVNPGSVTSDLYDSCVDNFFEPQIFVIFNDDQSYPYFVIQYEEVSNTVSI
row,SMILES,IC50 [nM]
1,"O=C(c1cc(Cc2n[nH]c(=O)c3ccc(OC4CCC4)cc23)ccc1F)N1C[C@H]2CC[C@@H](C1)N2C(=O)C1CC1 [Example 107, 6-Cyclobutoxy-4-(3-(8-(cyclopropanecarbonyl)-3,8-diazabicyclo[3.2.1]octane-3-carbonyl)-4-fluorobenzyl)phthalazin-1(2H)-one]",100 to 500
2,"O=C(C1CC1)N1C[C@H]2CC[C@@H](C1)N2C(=O)c1cc(Cc2n[nH]c(=O)c3ccc(OC4CCC4)cc23)ccc1F [Example 112, 6-Cyclobutoxy-4-(3-(3-(cyclopropanecarbonyl)-3,8-diazabicyclo[3.2.1]octane-8-carbonyl)-4-fluorobenzyl)phthalazin-1(2H)-one]",100 to 500

# Same assay, conditions: read-out: PARP7 IC50
row,SMILES,IC50 [nM]
1,"N#Cc1ccnc(NC2CN(C(=O)c3cc(Cc4n[nH]c(=O)c5ccc(OC6CCC6)cc45)ccc3F)C2)c1 [Example 106, 2-(1-(5-((7-Cyclobutoxy-4-oxo-3,4-dihydrophthalazin-1-yl)methyl)-2-fluorobenzoyl)azetidin-3-ylamino)isonicotinonitrile]",100 to 500
2,"CNC(=O)c1ccnc(N(C)C2CN(C(=O)c3cc(Cc4n[nH]c(=O)c5ccc(OC6CCC6)cc45)ccc3F)C2)n1 [Example 108, 2-((1-(5-((7-cyclobutoxy-4-oxo-3,4-dihydrophthalazin-1-yl)methyl)-2-fluorobenzoyl)azetidin-3-yl)(methyl)amino)-N-methylpyrimidine-4-carboxamide]",100 to 500
3,"O=C(c1cc(Cc2n[nH]c(=O)c3ccc(OC4CCC4)cc23)ccc1F)N1CCC2C1CCN2C(=O)C1CC1 (centres unmarked) [Example 109, 6-cyclobutoxy-4-(3-(4-(cyclopropanecarbonyl)octahydropyrrolo[3,2-b]pyrrole-1-carbonyl)-4-fluorobenzyl)phthalazin-1(2H)-one]",100 to 500
4,"Cc1cnc(N(C)C2CN(C(=O)c3cc(Cc4n[nH]c(=O)c5ccc(OC6CCC6)cc45)ccc3F)C2)n1C [Example 110, 6-Cyclobutoxy-4-(3-(3-((1,5-dimethyl-1H-imidazol-2-yl)(methyl)amino)azetidine-1-carbonyl)-4-fluorobenzyl)phthalazin-1(2H)-one]",100 to 500
5,"N#Cc1ccc(N2CCC3C2CCN3C(=O)c2cc(Cc3n[nH]c(=O)c4ccc(OC5CCC5)cc34)ccc2F)nc1 (centres unmarked) [Example 111, 6-(4-(5-((7-Cyclobutoxy-4-oxo-3,4-dihydrophthalazin-1-yl)methyl)-2-fluorobenzoyl)hexahydropyrrolo[3,2-b]pyrrol-1(2H)-yl)nicotinonitrile]",100 to 500
6,"O=C(NC1CN(C(=O)c2cc(Cc3n[nH]c(=O)c4ccc(OC5CCC5)cc34)ccc2F)C1)C1CC1 [Example 113, N-(1-(5-((7-Cyclobutoxy-4-oxo-3,4-dihydrophthalazin-1-yl)methyl)-2-fluorobenzoyl)azetidin-3-yl)cyclopropanecarboxamide]",100 to 500
7,"CN(C(=O)CCC(F)(F)F)C1CN(C(=O)c2cc(Cc3n[nH]c(=O)c4ccc(OC5CCC5)cc34)ccc2F)C1 [Example 114, N-(1-(5-((7-cyclobutoxy-4-oxo-3,4-dihydrophthalazin-1-yl)methyl)-2-fluorobenzoyl)azetidin-3-yl)-4,4,4-trifluoro-N-methylbutanamide]",100 to 500
8,"N#Cc1ccc(N2CC3CN(C(=O)c4cc(Cc5n[nH]c(=O)c6ccc(OC7CCC7)cc56)ccc4F)CC3C2)nc1 (centres unmarked) [Example 115, 6-(5-(5-((7-Cyclobutoxy-4-oxo-3,4-dihydrophthalazin-1-yl)methyl)-2-fluorobenzoyl)hexahydropyrrolo[3,4-c]pyrrol-2(1H)-yl)nicotinonitrile]",100 to 500
9,"CN(c1cncc(C#N)n1)C1CN(C(=O)c2cc(Cc3n[nH]c(=O)c4ccc(OC5CCC5)cc34)ccc2F)C1 [Example 116, 6-((1-(5-((7-Cyclobutoxy-4-oxo-3,4-dihydrophthalazin-1-yl)methyl)-2-fluorobenzoyl)azetidin-3-yl)(methyl)amino)pyrazine-2-carbonitrile]",100 to 500
10,"CN(C(=O)C1CCN1)C1CN(C(=O)c2cc(Cc3n[nH]c(=O)c4ccc(OC5CCC5)cc34)ccc2F)C1 (centres unmarked) [Example 117, N-(1-(5-((7-cyclobutoxy-4-oxo-3,4-dihydrophthalazin-1-yl)methyl)-2-fluorobenzoyl)azetidin-3-yl)-N-methylazetidine-2-carboxamide]",500 to 2000
11,"CN(C(=O)CC#N)C1CN(C(=O)c2cc(Cc3n[nH]c(=O)c4ccc(OC5CCC5)cc34)ccc2F)C1 [Example 118, 2-Cyano-N-(1-(5-((7-cyclobutoxy-4-oxo-3,4-dihydrophthalazin-1-yl)methyl)-2-fluorobenzoyl)azetidin-3-yl)-N-methylacetamide]",500 to 2000
12,"O=C(c1cc(Cc2n[nH]c(=O)c3ccc(OC4CCC4)cc23)ccc1F)N1CC2CN(C(=O)C3CC3)CC2C1 (centres unmarked) [Example 119, 6-Cyclobutoxy-4-(3-(5-(cyclopropanecarbonyl)octahydropyrrolo[3,4-c]pyrrole-2-carbonyl)-4-fluorobenzyl)phthalazin-1(2H)-one]",500 to 2000
13,"CN(c1nccc(C(F)(F)F)n1)C1CN(C(=O)c2cc(Cc3n[nH]c(=O)c4ccc(OC5CCC5)cc34)ccc2F)C1 [Example 120, 6-cyclobutoxy-4-(4-fluoro-3-(3-(methyl(4-(trifluoromethyl)pyrimidin-2-yl)amino)azetidine-1-carbonyl)benzyl) phthalazin-1(2H)-one]",500 to 2000
14,"CN(C(=O)C1CC1)C1CN(C(=O)c2cc(Cc3n[nH]c(=O)c4ccc(OC5CCC5)cc34)ccc2F)C1 [Example 121, N-(1-(5-((7-Cyclobutoxy-4-oxo-3,4-dihydrophthalazin-1-yl)methyl)-2-fluorobenzoyl)azetidin-3-yl)-N-methylcyclopropanecarboxamide]",500 to 2000
15,"CN(C(=O)C1CCO1)C1CN(C(=O)c2cc(Cc3n[nH]c(=O)c4ccc(OC5CCC5)cc34)ccc2F)C1 (centres unmarked) [Example 122, N-(1-(5-((7-cyclobutoxy-4-oxo-3,4-dihydrophthalazin-1-yl)methyl)-2-fluorobenzoyl)azetidin-3-yl)-N-methyloxetane-2-carboxamide]",500 to 2000
16,"CNC(=O)c1ccnc(N(C)C2CN(C(=O)c3cc(Cc4n[nH]c(=O)c5ccc(OC6CCC6)cc45)ccc3F)C2)c1 [Example 123, 2-((1-(5-((7-cyclobutoxy-4-oxo-3,4-dihydrophthalazin-1-yl)methyl)-2-fluorobenzoyl)azetidin-3-yl)(methyl)amino)-N-methylisonicotinamide]",500 to 2000
17,"CN(c1cc(C#N)ccn1)C1CN(C(=O)c2cc(Cc3n[nH]c(=O)c4ccc(OC5COC5)cc34)ccc2F)C1 [Example 124, 2-((1-(2-fluoro-5-((7-(oxetan-3-yloxy)-4-oxo-3,4-dihydrophthalazin-1-yl)methyl)benzoyl)azetidin-3-yl)(methyl)amino)isonicotinonitrile]",> 2000
18,"N#Cc1cncc(N2CCN(C(=O)c3cc(Cc4n[nH]c(=O)c5ccc(OC6CCC6)cc45)ccc3F)CC2)c1 [Example 141, 5-(4-(5-((7-cyclobutoxy-4-oxo-3,4-dihydrophthalazin-1-yl)methyl)-2-fluorobenzoyl)piperazin-1-yl)nicotinonitrile]",50 to 100
19,"N#Cc1ccc(N2CC3CCC2CN3C(=O)c2cc(Cc3n[nH]c(=O)c4ccc(OC5CCC5)cc34)ccc2F)nc1 (centres unmarked) [Example 143, 6-(5-(5-((7-cyclobutoxy-4-oxo-3,4-dihydrophthalazin-1-yl)methyl)-2-fluorobenzoyl)-2,5-diazabicyclo[2.2.2]octan-2-yl)nicotinonitrile]",50 to 100
20,"O=C(c1cc(Cc2n[nH]c(=O)c3ccc(OC4CCC4)cc23)ccc1F)N1CC2CCC1CN2c1ncc(C(F)(F)F)cn1 (centres unmarked) [Example 144, 6-cyclobutoxy-4-(4-fluoro-3-(5-(5-(trifluoromethyl)pyrimidin-2-yl)-2,5-diazabicyclo[2.2.2]octane-2-carbonyl)benzyl)phthalazin-1(2H)-one]",< 50
21,"O=C(c1cc(Cc2n[nH]c(=O)c3ccc(OC4CCC4)cc23)ccc1F)N1CC2CN(c3ncc(C(F)(F)F)cn3)CC2C1 (centres unmarked) [Example 147, 6-cyclobutoxy-4-(4-fluoro-3-(5-(5-(trifluoromethyl)pyrimidin-2-yl)octahydropyrrolo[3,4-c]pyrrole-2-carbonyl)benzyl)phthalazin-1(2H)-one]",> 2000
22,"CC(F)(F)c1cnc(N2CCN(C(=O)c3cc(Cc4n[nH]c(=O)c5ccc(OC6CCC6)cc45)ccc3F)CC2)nc1 [Example 161, 6-cyclobutoxy-4-(3-(4-(5-(1,1-difluoroethyl)pyrimidin-2-yl)piperazine-1-carbonyl)-4-fluorobenzyl)phthalazin-1(2H)-one]",< 50
23,"O=C(c1cc(Cc2n[nH]c(=O)c3ccc(OC4CCC4)cc23)ccc1F)N1CCn2c(nnc2C(F)F)C1 [Example 163, 6-Cyclobutoxy-4-(3-(3-(difluoromethyl)-5,6,7,8-tetrahydro-[1,2,4]triazolo[4,3-a]pyrazine-7-carbonyl)-4-fluorobenzyl)phthalazin-1(2H)-one]",< 50
24,"O=C(c1cc(Cc2n[nH]c(=O)c3ccc(OC4CCC4)cc23)ccc1F)N1CCn2c(CF)nnc2C1 [Example 164, 6-Cyclobutoxy-4-(4-fluoro-3-(3-(fluoromethyl)-5,6,7,8-tetrahydro-[1,2,4]triazolo[4,3-a]pyrazine-7-carbonyl)benzyl)phthalazin-1(2H)-one]",< 50
25,"COc1nnc2n1CCN(C(=O)c1cc(Cc3n[nH]c(=O)c4ccc(OC5CCC5)cc34)ccc1F)C2 [Example 165, 6-Cyclobutoxy-4-(4-fluoro-3-(3-methoxy-5,6,7,8-tetrahydro-[1,2,4]triazolo[4,3-a]pyrazine-7-carbonyl)benzyl)phthalazin-1(2H)-one]",< 50
26,"O=C(c1cc(Cc2n[nH]c(=O)c3ccc(OC4CCC4)cc23)ccc1F)N1CCn2c(CO)nnc2C1 [Example 166, 6-Cyclobutoxy-4-(4-fluoro-3-(3-(hydroxymethyl)-5,6,7,8-tetrahydro-[1,2,4]triazolo[4,3-a]pyrazine-7-carbonyl)benzyl)phthalazin-1(2H)-one]",< 50
27,"COCc1nnc2n1CCN(C(=O)c1cc(Cc3n[nH]c(=O)c4ccc(OC5CCC5)cc34)ccc1F)C2 [Example 167, 6-Cyclobutoxy-4-(4-fluoro-3-(3-(methoxymethyl)-5,6,7,8-tetrahydro-[1,2,4]triazolo[4,3-a]pyrazine-7-carbonyl)benzyl)phthalazin-1(2H)-one]",< 50
